One assay has as its system HeLa. The experiment in a line: Tested for mammalian cell (HeLa)-based antiproliferative assay. Format: functional, Homo sapiens.
The target of assay [1] is Histone deacetylase (Eimeria tenella). The experiment in a line: Displacement of [3H]-Apicidin A from Histone deacetylase of Eimeria tenella extract. (In general: Displacement assays read how much labelled ligand stays bound in the presence of the test substance.)
In assay [2] the target is Histone deacetylase. The experiment in a line: Tested for Histone deacetylase enzyme inhibition assay using mammalian cell nuclear extract (HeLa). It counts as protein assay, Homo sapiens.
Assay [3] has as its target Histone deacetylase. The experiment in a line: Inhibition of [3H]-Apicidin A binding to Histone deacetylase of chick liver extract. On the set-up: species or system Gallus gallus.
A short description of assay [4]: Tested for parasite (malaria)-based antiproliferative assay. It counts as functional.
The nature of assay [5]: Tested for parasite (malaria)-based antiproliferative assay; ND means no data. It counts as functional.

pIC50: −log10 of the molar value. Converted amounts (≈) assume the structure as drawn.

Usually pIC50 stands for −log10 of the IC50, conventionally taken in molar units. High values mean a small IC50, low ones a large IC50. As usually defined, the IC50 is the point on the concentration scale where inhibition reaches its midpoint.

For `CCC(=O)CCCCC[C@@H]1NC(=O)[C@H]2CCCCN2C(=O)[C@H]([C@@H](C)CC)NC(=O)[C@H](c2cn(C)c3ccccc3c2=O)NC1=O` [listing 1 of 2 here], the AP50 in the assay on HeLa was >10000 ng/mL.
Take `CCCn1cc([C@@H]2NC(=O)[C@H](CCCCCC(=O)CC)NC(=O)[C@H]3CCCCN3C(=O)[C@H]([C@@H](C)CC)NC2=O)c(=O)c2ccccc21` [listing 1 of 2 here]: the negative logarithm of the IC50 (pIC50) in assay [1] was 6.72. The IC50 came out at 230 nM against Histone deacetylase [2], 700 ng/mL (≈ 1.08 µM) on Histone deacetylase [3] and 440 ng/mL (≈ 0.677 µM) in assay [4].
In the assay on HeLa, `CCC(=O)CCCCC[C@@H]1NC(=O)[C@H]2CCCCN2C(=O)[C@H]([C@@H](C)CC)NC(=O)[C@H](Cc2cn(CC(=O)OC)c3ccccc23)NC1=O` [listing 1 of 2 here] came in with an AP50 of 150 ng/mL.
`CCC(=O)CCCCC[C@@H]1NC(=O)[C@H]2CCCCN2C(=O)[C@H]([C@@H](C)CC)NC(=O)[C@H](Cc2cn(CC(=O)O)c3ccccc23)NC1=O`: the negative-log IC50 (pIC50) in assay [1] is 7.00. The IC50 on Histone deacetylase [3] turned out to be 65 ng/mL (≈ 0.0997 µM); in assay [5] it was 1000 ng/mL (≈ 1.53 µM).
Regarding `CCCn1cc([C@@H]2NC(=O)[C@H](CCCCCC(=O)CC)NC(=O)[C@H]3CCCCN3C(=O)[C@H]([C@@H](C)CC)NC2=O)c(=O)c2ccccc21` [listing 2 of 2 here], the AP50 in the assay on HeLa is >10000 ng/mL.
The compound `CCC(=O)CCCCC[C@@H]1NC(=O)[C@H]2CCCCN2C(=O)[C@H]([C@@H](C)CC)NC(=O)[C@H](c2cn(CC)c3ccccc3c2=O)NC1=O` showed a negative logarithm of the IC50 (pIC50) in assay [1] of 6.96. Besides, the half-maximal inhibitory concentration (IC50) came out at 330 nM against Histone deacetylase [2], 2000 ng/mL (≈ 3.15 µM) on Histone deacetylase [3] and 240 ng/mL (≈ 0.377 µM) in assay [4]. For the same compound, the AP50 in the assay on HeLa was >10000 ng/mL.
Consider `CCC(=O)CCCCC[C@@H]1NC(=O)[C@H]2CCCCN2C(=O)[C@H]([C@@H](C)CC)NC(=O)[C@H](Cc2cn(CC(=O)OC)c3ccccc23)NC1=O` [listing 2 of 2 here], for which the negative logarithm of the IC50 (pIC50) in assay [1] was 7.98. In addition, the IC50 turned out to be 5 ng/mL (≈ 0.00751 µM) at Histone deacetylase [3] and 250 ng/mL (≈ 0.375 µM) in assay [4].
For `CCC(=O)CCCCC[C@@H]1NC(=O)[C@H]2CCCCN2C(=O)[C@H]([C@@H](C)CC)NC(=O)[C@H](Cc2cn(OC)c3ccccc23)NC1=O` [APICIDIN], the half-maximal inhibitory concentration (IC50) in assay [4] came out at 57 ng/mL (≈ 0.0914 µM). Further, in the assay with HeLa, the AP50 is 78 ng/mL.
For `CCC(=O)CCCCC[C@@H]1NC(=O)[C@H]2CCCCN2C(=O)[C@H]([C@@H](C)CC)NC(=O)[C@H](c2cn(CC(=O)O)c3ccccc3c2=O)NC1=O` [listing 1 of 2 here], the AP50 in the assay on HeLa is >10000 ng/mL.
In turn, `CCC(=O)CCCCC[C@@H]1NC(=O)[C@H]2CCCCN2C(=O)[C@H]([C@@H](C)CC)NC(=O)[C@H](Cc2cn(C)c3ccccc23)NC1=O` had a pIC50 in assay [1] of 7.70. Also, the IC50 came out at 5 ng/mL (≈ 0.00823 µM) at Histone deacetylase [3] and 20 ng/mL (≈ 0.0329 µM) in assay [4]. In the assay on HeLa, the AP50 was 225 ng/mL.
Turning to `CCCn1cc(C[C@@H]2NC(=O)[C@H](CCCCCC(=O)CC)NC(=O)[C@H]3CCCCN3C(=O)[C@H]([C@@H](C)CC)NC2=O)c2ccccc21` [listing 1 of 2 here], in assay [1], the negative-log IC50 (pIC50) was 7.33. Further, the figures for the 50% inhibitory concentration (IC50) (at Histone deacetylase [3]; in assay [4]) were 10 ng/mL (≈ 0.0157 µM) and 250 ng/mL (≈ 0.393 µM), respectively.
Take `CCCn1cc(C[C@@H]2NC(=O)[C@H](CCCCCC(=O)CC)NC(=O)[C@H]3CCCCN3C(=O)[C@H]([C@@H](C)CC)NC2=O)c2ccccc21` [listing 2 of 2 here]: the AP50 in the assay with HeLa worked out at 625 ng/mL.
In assay [1], `CCC(=O)CCCCC[C@@H]1NC(=O)[C@H]2CCCCN2C(=O)[C@H]([C@@H](C)CC)NC(=O)[C@H](c2cnc3ccccc3c2O)NC1=O` had a pIC50 of 7.61. Further, the figures for the 50% inhibitory concentration (IC50) (at Histone deacetylase [3]; in assay [4]) were 1000 ng/mL (≈ 1.65 µM) and 40 ng/mL (≈ 0.0658 µM), respectively. Also, the AP50 with HeLa was >10000 ng/mL.
As to `CCC(=O)CCCCC[C@@H]1NC(=O)[C@H]2CCCCN2C(=O)[C@H]([C@@H](C)CC)NC(=O)[C@H](c2cn(CC(=O)O)c3ccccc3c2=O)NC1=O` [listing 2 of 2 here], the negative-log IC50 (pIC50) in assay [1] is 5.52. Further, the 50% inhibitory concentration (IC50) on Histone deacetylase [3] was 5000 ng/mL (≈ 7.51 µM); in assay [4], 550 ng/mL (≈ 0.826 µM).
On to `CCC(=O)CCCCC[C@@H]1NC(=O)[C@H]2CCCCN2C(=O)[C@H]([C@@H](C)CC)NC(=O)[C@H](c2cn(CC(=O)OC)c3ccccc3c2=O)NC1=O` [listing 1 of 2 here], for which the pIC50 in assay [1] is 6.36. Further, the IC50 on Histone deacetylase [3] is 2000 ng/mL (≈ 2.94 µM); in assay [4], 790 ng/mL (≈ 1.16 µM).
On to `CCC(=O)CCCCC[C@@H]1NC(=O)[C@H]2CCCCN2C(=O)[C@H]([C@@H](C)CC)NC(=O)[C@H](c2cn(C)c3ccccc3c2=O)NC1=O` [listing 2 of 2 here], for which the pIC50 in assay [1] is 7.02; against Histone deacetylase [2], 6.62. The values for the IC50 (at Histone deacetylase [3]; in assay [4]) were 1000 ng/mL (≈ 1.61 µM) and 117 ng/mL (≈ 0.188 µM), respectively.
`CCC(=O)CCCCC[C@@H]1NC(=O)[C@H]2CCCCN2C(=O)[C@H]([C@@H](C)CC)NC(=O)[C@H](Cc2cn(CC)c3ccccc23)NC1=O` showed a pIC50 in assay [1] of 6.79. In addition, the 50% inhibitory concentration (IC50) stood at 10 ng/mL (≈ 0.0161 µM) on Histone deacetylase [3] and 180 ng/mL (≈ 0.289 µM) in assay [4].
In the case of `CCC(=O)CCCCC[C@@H]1NC(=O)[C@H]2CCCCN2C(=O)[C@H]([C@@H](C)CC)NC(=O)[C@H](c2cn(CC(=O)OC)c3ccccc3c2=O)NC1=O` [listing 2 of 2 here], in the assay on HeLa, the AP50 was >10000 ng/mL.
Regarding `CCC(=O)CCCCC[C@@H]1NC(=O)[C@H]2CCCCN2C(=O)[C@H]([C@@H](C)CC)NC(=O)[C@H](c2cn(OC)c3ccccc3c2=O)NC1=O`, the negative-log IC50 (pIC50) in assay [1] was 7.20. For the same compound, the IC50 against Histone deacetylase [2] came out at 86 nM; on Histone deacetylase [3], 1000 ng/mL (≈ 1.57 µM); in assay [4], 40 ng/mL (≈ 0.0627 µM). The compound further gave an AP50 with HeLa of 10000 ng/mL.

(Values after ChEMBL document CHEMBL1133119, “Synthesis of apicidin-derived quinolone derivatives: parasite-selective histone deacetylase inhibitors and antiproliferative agents” (J Med Chem, 2000).)
